Among the test systems are Vibrio parahaemolyticus; Vibrio fluvialis; Aeromonas hydrophila; Staphylococcus aureus; Streptococcus pyogenes; Escherichia coli; Vibrio alginolyticus; Escherichia coli ML-35p; Fusarium solani; Rhizoctonia solani; Trichoderma asperellum; Fusarium oxysporum; Ramulariopsis gossypii.
Common to all, as to assay: ≥ marks a high value that may be exact or a test limit, other limits are often not marked, values filed in µg/mL are converted to µM
Assay [1] relates to Escherichia coli ATCC 25922.
Assay [2] has as its system Staphylococcus aureus ATCC 25923.
For assay [3], the system named is Candida albicans NCTC 3179.
Assay [4] deals with Staphylococcus aureus ATCC 12493.
The test system of assay [5] is Escherichia coli NCTC 10418.
Assay [6] concerns Candida albicans NCPF 1467.
The subject of assay [7] is Staphylococcus aureus NCTC 10788.
Assay [8] concerns Enterococcus faecalis ATCC 29212.
Assay [9] has as its system Staphylococcus aureus ATCC BAA-44.
In assay [10] the test system is Pseudomonas aeruginosa ATCC 27853.
In assay [11] the test system is Pseudomonas syringae pv. tabaci.
Assay [12] concerns Candida albicans ATCC 90028.
For assay [13], the system named is Fusarium oxysporum f.sp. vasinfectum.
The test system of assay [14] is Cryptococcus neoformans ATCC 28957.
The subject of assay [15] is Bacillus cereus ATCC 14579.
For assay [16], the system named is Pectobacterium carotovorum.
In assay [17] the test system is Bacillus subtilis ATCC 23857.
In assay [18] the test system is Xanthomonas campestris pv. citri.
For assay [19], the system named is Acinetobacter baumannii KCTC 2508.
In assay [20] the test system is Klebsiella pneumoniae KCTC 2208.
Assay [21] relates to Pseudomonas aeruginosa MTCC 2488.
In assay [22] the test system is Staphylococcus aureus MTCC 96.
In assay [23] the test system is Klebsiella pneumoniae MTCC 443.
Assay [24] deals with Streptococcus sanguinis ATCC 49295.
The subject of assay [25] is Streptococcus gordonii ATCC 10558.
Assay [26] concerns Streptococcus mutans GS-5.
The test system of assay [27] is Streptococcus mutans UA159.

≈ marks a conversion by molar mass, not a printed value.

With `CC[C@H](C)[C@H](NC(=O)[C@@H]1CCCN1C(=O)CNC(=O)[C@H](CO)NC(=O)[C@H](CO)NC(=O)[C@@H](NC(=O)[C@H](C)NC(=O)[C@H](CCC(N)=O)NC(=O)[C@H](Cc1ccccc1)NC(=O)[C@H](CCCN=C(N)N)NC(=O)[C@H](CC(C)C)NC(=O)[C@H](CC(C)C)NC(=O)[C@H](CC(C)C)NC(=O)[C@H](CCC(=O)O)NC(=O)[C@H](CCC(=O)O)NC(=O)[C@H](CO)NC(=O)[C@H](C)N)[C@@H](C)O)C(=O)N[C@@H](CC(C)C)C(=O)N[C@@H](CCCN=C(N)N)C(=O)N[C@@H](CCC(=O)O)C(=O)N[C@@H](CCC(=O)O)C(=O)N[C@@H](Cc1ccccc1)C(=O)N[C@@H](CCC(=O)O)C(=O)O` [ASEELLLRFQATSSGPILREEFE], the MIC is more than 95.3 µM in [1], more than 95.3 µM in assay [2] and not below 95.3 µM in assay [3].

Regarding `CC(C)C[C@H](NC(=O)[C@H](CC(C)C)NC(=O)[C@H](CC(C)C)NC(=O)[C@@H]1CCCN1C(=O)[C@H](CC(C)C)NC(=O)[C@@H](N)Cc1ccccc1)C(=O)N[C@@H](C)C(=O)NCC(=O)N[C@@H](CC(C)C)C(=O)N1CCC[C@H]1C(=O)N[C@@H](CO)C(=O)N[C@@H](Cc1ccccc1)C(=O)N[C@@H](CC(C)C)C(=O)N[C@H]1CSSC[C@@H](C(=O)O)NC(=O)[C@H](CCCCN)NC(=O)[C@H](CCCCN)NC(=O)[C@H](Cc2ccccc2)NC(=O)[C@H](C(C)C)NC(=O)[C@H](CC(C)C)NC1=O` [FLPLLLAGLPSFLCLVFKKC], the MIC in assay [4] was not below 512 µM; in assay [5] it was not below 512 µM; in assay [6], not below 512 µM; in assay [7] it was not below 128 µM.

In the case of `CC(C)C[C@H](NC(=O)[C@H](CCCCN)NC(=O)[C@H](CCC(N)=O)NC(=O)[C@@H](NC(=O)[C@H](C)NC(=O)[C@H](CCC(=O)O)NC(=O)CNC(=O)CN)C(C)C)C(=O)N[C@H](C(=O)N[C@@H](CCCN=C(N)N)C(=O)N[C@@H](CCC(=O)O)C(=O)N[C@H](C(=O)N[C@@H](CCCCN)C(=O)N[C@@H](CC(=O)O)C(=O)NCC(=O)O)C(C)C)C(C)C` [GGEAVQKLVREVKDG], the MIC with Vibrio parahaemolyticus was not below 158 µM; in the assay on Vibrio fluvialis, not below 78.9 µM; in the assay on Aeromonas hydrophila, not below 158 µM; in the assay with Staphylococcus aureus, more than 158 µM; with Streptococcus pyogenes, not below 158 µM; against Escherichia coli it was more than 158 µM. In the assay with Vibrio alginolyticus, the MIC was not below 78.9 µM.

On to `CC[C@H](C)[C@H](NC(=O)[C@H](CCCCN)NC(=O)[C@H](CC(C)C)NC(=O)[C@H](CC(C)C)NC(=O)[C@@H]1CCCN1C(=O)CNC(=O)[C@H](CC(C)C)NC(=O)[C@H](CCCCN)NC(=O)CN)C(=O)N[C@@H](C)C(=O)N[C@@H](C)C(=O)N[C@@H](CCCCN)C(=O)N[C@H](C(=O)NCC(=O)N[C@@H](CO)C(=O)N[C@@H](CCCCN)C(=O)N[C@@H](CC(C)C)C(=O)N[C@@H](CC(C)C)C(N)=O)C(C)C` [GKLGPLLKIAAKVGSKLL], for which the minimum inhibitory concentration (MIC) came out at 6.3 µM (≈ 11.4 µg/mL) in assay [1]; 3 µM (≈ 5.42 µg/mL) in assay [2]; 50 µM (≈ 90.3 µg/mL) in assay [8]; 6.3 µM (≈ 11.4 µg/mL) in assay [9]; 1.6 µM (≈ 2.89 µg/mL) in the assay with Escherichia coli ML-35p; 3 µM (≈ 5.42 µg/mL) in assay [10].

Regarding `CSCC[C@H](NC(=O)[C@H](Cc1ccccc1)NC(=O)CNC(=O)[C@H](Cc1cnc[nH]1)NC(=O)[C@H](CC(C)C)NC(=O)[C@H](CO)NC(=O)CN)C(=O)N[C@@H](Cc1ccc(O)cc1)C(=O)N[C@@H](CCCCN)C(=O)N[C@@H](Cc1ccc(O)cc1)C(=O)N[C@@H](CC(C)C)C(=O)N[C@@H](CCCCN)C(=O)N[C@H](C(=O)N[C@@H](CC(C)C)C(=O)N[C@H](C(=O)N[C@@H](CC(C)C)C(=O)N[C@@H](CCCN=C(N)N)C(=O)N[C@@H](CC(C)C)C(=O)N[C@@H](Cc1ccc(O)cc1)C(N)=O)C(C)C)[C@@H](C)O` [GSLHGFMYKYLKTLVLRLY], the MIC was 4 µM (≈ 9.21 µg/mL) against Fusarium solani; not below 32 µM in assay [11]; not below 32 µM in the assay with Rhizoctonia solani; 6.67 µM (≈ 15.4 µg/mL) in assay [12]; 10.7 µM (≈ 24.6 µg/mL) in assay [13]; 4 µM (≈ 9.21 µg/mL) in assay [14]. The MIC in [1] is 13.3 µM (≈ 30.7 µg/mL); in assay [15] it was not below 64 µM; in the assay with Trichoderma asperellum, 16 µM (≈ 36.8 µg/mL); in assay [2] it was 16 µM (≈ 36.8 µg/mL); in assay [16], 16 µM (≈ 36.8 µg/mL); in assay [10] it was 16 µM (≈ 36.8 µg/mL). The MIC in the assay with Fusarium oxysporum stood at 16 µM (≈ 36.8 µg/mL); in assay [17], 8 µM (≈ 18.4 µg/mL); in [18], 16 µM (≈ 36.8 µg/mL); in the assay on Ramulariopsis gossypii it was 2 µM (≈ 4.6 µg/mL).

As to `CC[C@H](C)[C@H](N)C(=O)N[C@@H](C)C(=O)N[C@@H](CCCN=C(N)N)C(=O)N[C@@H](CCCN=C(N)N)C(=O)N[C@@H](C)C(=O)N[C@@H](CC(C)C)C(=O)N[C@@H](CCCCN)C(=O)N[C@@H](CCCCN)C(=O)N[C@@H](C)C(=O)N[C@@H](CCCCN)C(=O)N[C@@H](CCCN=C(N)N)C(=O)N[C@@H](C)C(=O)N[C@@H](CCCN=C(N)N)C(=O)N[C@@H](Cc1cnc[nH]1)C(=O)N[C@H](C(=O)N[C@H](C(=O)N1CCC[C@H]1C(=O)N[C@@H](CCC(N)=O)C(=O)N[C@@H](CS)C(=O)N[C@@H](CCCCN)C(=O)N[C@@H](CCCCN)C(=O)N[C@@H](Cc1ccccc1)C(=O)NCC(=O)N[C@@H](CCCN=C(N)N)C(=O)N[C@@H](CCCN=C(N)N)C(N)=O)[C@@H](C)CC)[C@@H](C)O` [IARRALKKAKRARHTIPQCKKFGRR], the results for the MIC in assay [19], in assay [10] and in [20] were 4 µM (≈ 12 µg/mL), 1 µM (≈ 2.99 µg/mL) and 8 µM (≈ 23.9 µg/mL), respectively.

`CC(C)C[C@H](NC(=O)[C@H](CCCCN)NC(=O)[C@H](CCCCN)NC(=O)[C@H](CC(C)C)NC(=O)[C@H](Cc1c[nH]c2ccccc12)NC(=O)[C@H](CCCCN)NC(=O)[C@@H](N)CC(C)C)C(N)=O` [LKWLKKL]: the MIC is 30 µM (≈ 27.8 µg/mL) in assay [21], not below 80 µM in assay [22] and not below 50 µM in assay [23].

`CC(C)C[C@H](NC(=O)[C@H](CCCN=C(N)N)NC(=O)[C@H](Cc1ccccc1)NC(=O)[C@H](Cc1ccccc1)NC(=O)[C@@H](NC(=O)[C@H](CO)NC(=O)[C@@H](N)CC(C)C)[C@@H](C)O)C(=O)N[C@@H](Cc1ccccc1)C(=O)N[C@@H](CC(N)=O)C(=O)O` [LSTFFRLFN]: the MIC in assay [24], in assay [25], in assay [26] and in [27] was not below 224 µM throughout.

The term MIC denotes the least concentration at which growth counts as inhibited. The low end stands for greater potency, the high end for weaker potency.

The values are drawn from DBAASP.
